One data set concerns the target T1, human D3-receptor (Homo sapiens, UniProt P35462).
T1 construct: host or cells: CCL 1,3 mouse fibroblasts
Put plainly: D3 binding test (125iodosulpiride, membranes of CCL 1,3 mouse fibroblasts). The settings on record: negative logarithm of the affinity constant for the D3 receptor; read-out: pKi (D3) (converted). The procedure:
Cloned human D3-receptor-expressing CCL 1,3 mouse fibroblasts, obtainable from Res. Biochemicals Internat. One Strathmore Rd., Natick, Mass. 01760-2418 USA, were used for the binding studies.
The D3-expressing cells were multiplied in RPMI-1640 containing 10% fetal calf serum (GIBCO No. 041-32400 N); 100 U of penicillin/ml and 0.2% streptomycin (GIBO BRL, Gaithersburg, Md., USA). After 48 h, the cells were washed with PBS and incubated for 5 min with 0.05% trypsin-containing PBS. After that, the solution was neutralized with medium and the cells were collected by centrifuging at 300 g. In order to lyse the cells, the pellet was washed briefly with lysis buffer (5 mM Tris-HCl, pH 7.4, containing 10% glycerol) and after that incubated, at 4° C. for 30 min, at a concentration of 10^7 cells/ml of lysis buffer. The cells were centrifuged at 200 g for 10 min and the pellet was stored in liquid nitrogen.
For the D3-receptor binding test, the membranes were suspended in incubation buffer (50 mM Tris-HCl, pH 7.4, containing 120 mM NaCl, 5 mM KCl, 2 mM CaCl2, 2 mM MgCl2, 10 μM quinolinol, 0.1% ascorbic acid and 0.1% BSA), at a concentration of approx. 10^6 cells/250 μl of test mixture, and incubated at 30° C. with 0.1 nM ^125iodosulpiride in the presence and absence of the test substance. The nonspecific binding was determined using 10^−6 M spiperone.
After 60 min, the free radioligand and the bound radioligand were separated by filtering through GF/B glass fiber filters (Whatman, England) on a Skatron cell harvester (Skatron, Lier, Norway), and the filters were washed with ice-cold Tris-HCl buffer, pH 7.4. The radioactivity which had collected on the filters was quantified using a Packard 2200 CA liquid scintillation counter.
The Ki values were determined by means of nonlinear regression analysis using the LIGAND program.

Data set [1] concerns the target T2, human dopamine D2A receptors (Homo sapiens, UniProt P14416).
T2 construct: expressed in transfected cells; host or cells: HEK-293 cells
Put plainly: D2 binding test (125I-spiperone, HEK-293 cells). Conditions: selectivity versus D2 receptor, Ki(D2)/Ki(D3). How it is done:
All the media contained 100 units of penicillin […] and 100 μg/ml of streptomycin/ml. The cells were maintained at 37° C. in a moist atmosphere containing 5% CO2.
The cells were prepared for the binding studies by trypsinizing them (0.05% solution of trypsin) at room temperature for 3-5 minutes. After that, the cells were centrifuged at 250 g for 10 minutes and treated with lysis buffer (5 mM Tris-HCl, 10% glycerol, pH 7.4) at 4° C. for 30 minutes. After centrifuging at 250 g for 10 minutes, the residue was stored at −20° C. until used.
Low affinity state dopamine D2 receptor using ^125I-spiperone (81 TBq/mmol, Du Pont de Nemours, Dreieich)
The test mixtures (1 ml) consisted of 1×10^5 cells in incubation buffer (50 mM Tris, 120 mM NaCl, 5 mM KCl, 2 mM MgCl2 and 2 mM CaCl2, pH 7.4 with HCl) and […] ^125I-spiperone (total binding) or additionally 1 μM haloperidol (nonspecific binding) or test substance.
After the test mixtures had been incubated at 25° C. for 60 minutes, they were filtered through GM/B glass filters (Whatman, England) on a Skatron cell harvester (from Zinsser, Frankfurt), and the filters were washed with ice-cold 50 mM Tris-HCl buffer, pH 7.4. The radioactivity which had collected on the filters was quantified using a Packard 2200 CA liquid scintillation counter.
The results were evaluated as described in a).
The Ki values were determined by way of nonlinear regression analysis using the LIGAND program or by converting the IC50 values using the Cheng and Prusoff formula.

Structures can show the parent of a compound that is named as a salt.

T1 sequence (P35462 whole entry): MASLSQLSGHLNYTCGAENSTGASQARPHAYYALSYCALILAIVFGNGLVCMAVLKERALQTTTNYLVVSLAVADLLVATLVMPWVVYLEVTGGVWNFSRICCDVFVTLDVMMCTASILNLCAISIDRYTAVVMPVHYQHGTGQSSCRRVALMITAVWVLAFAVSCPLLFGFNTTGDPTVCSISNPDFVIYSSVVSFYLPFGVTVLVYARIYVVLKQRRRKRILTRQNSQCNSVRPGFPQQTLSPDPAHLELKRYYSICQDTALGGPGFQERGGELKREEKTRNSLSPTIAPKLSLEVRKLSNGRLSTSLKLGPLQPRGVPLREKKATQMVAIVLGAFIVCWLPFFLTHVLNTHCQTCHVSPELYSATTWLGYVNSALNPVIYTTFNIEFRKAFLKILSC
T2 sequence (P14416 whole entry): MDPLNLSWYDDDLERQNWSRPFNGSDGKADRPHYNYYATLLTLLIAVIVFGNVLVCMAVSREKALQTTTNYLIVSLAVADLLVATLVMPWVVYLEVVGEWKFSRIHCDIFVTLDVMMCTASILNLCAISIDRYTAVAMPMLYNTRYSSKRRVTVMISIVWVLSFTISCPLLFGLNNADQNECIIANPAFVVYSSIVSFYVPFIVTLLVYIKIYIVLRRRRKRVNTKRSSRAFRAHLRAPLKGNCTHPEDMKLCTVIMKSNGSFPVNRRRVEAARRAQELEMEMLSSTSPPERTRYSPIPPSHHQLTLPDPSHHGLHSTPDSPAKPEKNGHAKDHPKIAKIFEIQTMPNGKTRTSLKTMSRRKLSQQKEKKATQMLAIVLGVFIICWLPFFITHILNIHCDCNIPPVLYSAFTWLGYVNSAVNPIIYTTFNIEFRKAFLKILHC

As a reminder, the melting point is the temperature, or range, at which the solid turns liquid. The compound `CCN(CC)Cc1ccc2c(c1)CN(CCCSc1nnc(-c3ccccc3)n1C)CC2.Cl.Cl` displayed a melting point of 75 °C.
On the same count and under the same terms, the value for `Cn1cccc1-c1nnc(SCCCN2CCc3ccc(S(=O)(=O)N4CCCCC4)cc3C2)n1C` [Example 35, 2-(3-{[4-Methyl-5-(1-methyl-1H-pyrrol-2-yl)-4H-1,2,4-triazol-3-yl]sulfanyl}propyl)-7-(piperidin-1-ylsulfonyl)-1,2,3,4-tetrahydroisoquinoline] was 96 to 100 °C; that for `Cl.Cn1c(CCCCN2CCc3ccc(C#N)cc3C2)nnc1-c1ccccc1` was 175 °C; that for `COc1cccc2c1CCN(CCCSc1nnc(-c3ccccc3)n1C)C2` [Example 11, 5-Methoxy-2-{3-[(4-methyl-5-phenyl-4H-1,2,4-triazol-3-yl)-sulfanyl]propyl}-1,2,3,4-tetrahydroisoquinoline] was 73 to 75 °C.
The compound `Cn1c(SCCCN2CCc3ccc(S(=O)(=O)N4CCCCC4)cc3C2)nnc1-c1ccccc1` [Example 4, 2-{3-[(4-Methyl-5-phenyl-4H-1,2,4-triazol-3-yl)sulfanyl]propyl}-7-(piperidin-1-ylsulfonyl)-1,2,3,4-tetrahydroisoquinoline] had a melting point of 105 to 108 °C. The Ki on human D3-receptor was 11 nM. Moreover, in data set [1], the Selectivity is 67.
The compound `Cn1c(SCCCN2CCc3cc(Cl)c(Cl)cc3C2)nnc1-c1ccccc1` [Example 28, 6,7-Dichloro-2-{3-[(4-methyl-5-phenyl-4H-1,2,4-triazol-3-yl)-sulfanyl]propyl}-1,2,3,4-tetrahydroisoquinoline] returned a melting point of 138 to 139 °C.
For the compound `COc1ccc2c(c1)CCN(CCCSc1nnc(-c3ccccc3)n1C)C2` [Example 3, 2-{3-[(4-Methyl-5-phenyl-4H-1,2,4-triazol-3-yl)sulfanyl]propyl}-6-methoxy-1,2,3,4-tetrahydroisoquinoline], at human D3-receptor, the Ki is 9.55 nM. In addition, in data set [1], the Selectivity is 78.
Regarding `Cn1c(SCCCN2CCc3ccc(C#N)cc3C2)nnc1-c1ccccc1` [Example 7, 2-{3-[(4-Methyl-5-phenyl-4H-1,2,4-triazol-3-yl)sulfanyl]propyl}-1,2,3,4-tetrahydroisoquinoline-7-carbonitrile], the melting point lay in the range of 116 to 118 °C. The Ki on human D3-receptor was 4.27 nM. The Selectivity in data set [1] amounted to 81.
In turn, `Cl.Cn1c(SCCCN2CCc3cc(C(F)(F)F)ccc3C2)nnc1-c1ccsc1` had a melting point of 184 to 185 °C.
The same measure, in the same setting: to `COC(=O)c1ccc2c(c1)CN(CCCSc1nnc(-c3ccccc3)n1C)CC2.O=C(O)C(=O)O` belongs 160 to 163 °C; to `C=C(CSc1nnc(-c2ccccc2)n1C)CN1CCc2ccc([N+](=O)[O-])cc2C1.Cl`, 146 to 150 °C.
The same measure, in the same setting: to `COc1ccc2c(c1)CCN(CCCSc1nnc(-c3ccc[nH]3)n1C)C2` [Example 2, 6-Methoxy-2-{3-[(4-methyl-5-pyrrol-2-yl-4H-1,2,4-triazol-3-yl)-sulfanyl]propyl}-1,2,3,4-tetrahydroisoquinoline] belongs 179 to 181 °C; to `Cl.Cn1c(SCCCN2CCc3ccc(C(F)(F)F)cc3C2)nnc1-c1ccccc1`, 205 to 207 °C.
Still for that read-out and setting: to `Cc1ncsc1-c1nnc(SCCCN2CCc3ccc(S(=O)(=O)Nc4ccccc4)cc3C2)n1C` [Example 26, 2-(3-{[4-Methyl-5-(4-methyl-1,3-thiazol-5-yl)-4H-1,2,4-triazol-3-yl]sulfanyl}propyl)-N-phenyl-1,2,3,4-tetrahydroisoquinoline-7-sulfonamide] belongs 77 to 81 °C; to `Cl.Cl.Cn1c(SCCCN2CCc3ccccc3C2)nnc1-c1cccnc1`, 87 to 89 °C.
On to `Cc1ncsc1-c1nnc(SCCCN2CCc3ccc(S(=O)(=O)NCc4ccccc4)cc3C2)n1C` [Example 9, N-Benzyl-2-(3-{[4-methyl-5-(4-methyl-1,3-thiazol-5-yl)-4H-1,2,4-triazol-3-yl]sulfanyl}propyl)-1,2,3,4-tetrahydroisoquinoline-7-sulfonamide], for which the melting point is 67 to 70 °C.
On the same count and under the same terms, the value for `Cn1c(SCCCN2CCc3ccc(S(=O)(=O)N4CCCC(C)(C)C4)cc3C2)nnc1-c1ccccc1` [Example 49, 7-[(3,3-Dimethylpiperidin-1-yl)sulfonyl]-2-{3-[(4-methyl-5-phenyl-4H-1,2,4-triazol-3-yl)sulfanyl]propyl}-1,2,3,4-tetrahydroisoquinoline] was 75 to 76 °C; that for `Cn1c(SCCCN2CCc3ccc(NS(C)(=O)=O)cc3C2)nnc1-c1ccccc1` (as salt: HCl) [Example 84, N-[2-(3-{[4-Methyl-5-phenyl-4H-1,2,4-triazol-3-yl]sulfanyl}-propyl)-1,2,3,4-tetrahydroisoquinolin-7-yl]methansulfonamide] was 90 °C.
As to `Cn1c(SCCCN2CCc3ccc(S(=O)(=O)NCc4ccccc4)cc3C2)nnc1-c1cccnc1` (as salt: HCl) [Example 10, N-Benzyl-2-{3-[(4-methyl-5-pyridin-3-yl-4H-1,2,4-triazol-3-yl)-sulfanyl]propyl}-1,2,3,4-tetrahydroisoquinoline-7-sulfonamide], the melting point lay within 81 to 84 °C.
Same read-out and setting: to `Cn1c(SCCCN2CCc3ccc(S(=O)(=O)Nc4ccccc4)cc3C2)nnc1-c1cccnc1` [Example 25, 2-{3-[(4-Methyl-5-pyridin-3-yl-4H-1,2,4-triazol-3-yl)sulfanyl]-propyl}-N-phenyl-1,2,3,4-tetrahydroisoquinoline-7-sulfonamide] belongs 58 to 61 °C; to `CCN(CC)CCOc1cccc2c1CCN(CCCSc1nnc(-c3ccccc3)n1C)C2.Cl.Cl`, 110 to 112 °C; to `Cn1c(SCCCN2CCc3cc(Cl)ccc3C2)nnc1-c1ccsc1` [Example 39, 6-Chloro-2-{3-[(4-methyl-5-thien-3-yl-4H-1,2,4-triazol-3-yl)-sulfanyl]propyl}-1,2,3,4-tetrahydroisoquinoline], 99 to 100 °C.

Values taken from patent US6602867B1, “Triazole compounds with dopamine-D3-receptor affinity” (Abbott Laboratories, priority 1999, dated 2003).
